Activity calls are given as the source filed them. The rule behind the calls is not given here.
Key:
[1] = 2-octanol-aqueous buffer partition coefficient, logP of the compound at pH 7.4; type: physicochemical
[2] = Photostability of the compound in air-saturated phosphate buffer solution under 2.5 mW/cm'2 white light; type: physicochemical
[3] = Photostability of the compound in nitrogen-saturated phosphate buffer solution under 2.5 mW/cm'2 white light; type: physicochemical
Staphylococcus aureus = experiment: Antibacterial activity against Staphylococcus aureus assessed as decrease in cell viability at > 50 uM after 30 mins under 2.5 mW/cm'2 white light by confocal microscopy/UV-diode laser method; type: functional, organism-based
Bacillus cereus = experiment: Antibacterial activity against Bacillus cereus assessed as decrease in cell viability at > 50 uM after 30 mins under 2.5 mW/cm'2 white light by confocal microscopy/UV-diode laser method; type: functional, organism-based

SMILES | logD [1] | Stability [2] | Stability [3] | Activity (Staphylococcus aureus) | Activity (Bacillus cereus)
O=C(O)COc1cc(OCC(=O)O)c(-c2c3nc(c(-c4ccc(C(=O)O)cc4)c4ccc([nH]4)c(-c4c(OCC(=O)O)cc(OCC(=O)O)cc4OCC(=O)O)c4nc(c(-c5ccc(C(=O)O)cc5)c5ccc2[nH]5)C=C4)C=C3)c(OCC(=O)O)c1 | -2.17 | Unstable | Stable | Active | inactive
Cc1cc(C)c(-c2c3nc(c(-c4c(OCC(=O)O)cc(OCC(=O)O)cc4OCC(=O)O)c4ccc([nH]4)c(-c4c(C)cc(C)cc4C)c4nc(c(-c5c(OCC(=O)O)cc(OCC(=O)O)cc5OCC(=O)O)c5ccc2[nH]5)C=C4)C=C3)c(C)c1 | -0.77 | Unstable | Stable | Active | Active
CC(C)(C)OC(=O)COc1cc(OCC(=O)OC(C)(C)C)c(-c2c3nc(c(-c4ccc(C(=O)O)cc4)c4ccc([nH]4)c(-c4c(OCC(=O)OC(C)(C)C)cc(OCC(=O)OC(C)(C)C)cc4OCC(=O)OC(C)(C)C)c4nc(c(-c5ccc(C(=O)O)cc5)c5ccc2[nH]5)C=C4)C=C3)c(OCC(=O)OC(C)(C)C)c1 | 1.66 | – | – | – | –

Source: ChEMBL document CHEMBL3351674, “Novel polycarboxylate porphyrins: synthesis, characterization, photophysical properties and preliminary antimicrobial study against Gram-positive bacteria” (Bioorg Med Chem Lett, 2015)
